Test results as given in patent US10023577B2, “Crystalline form of JAK kinase inhibitor bisulfate and a preparation method thereof” (Jiangsu Hengrui Medicine Co., Ltd., priority 2014, dated 2018).
Entries after “also recorded” stand apart in the source; their conditions may differ.

Experiments:
[1] = Stability of samples spread flat in the air under lighting, heating and high humidity, purity by HPLC; assay type: physicochemical
Experimental: Crystal form II prepared in Example 1 and the amorphous sample prepared in Example 2 were spread flat in the air to test their stability in conditions of lighting (4500 Lux), heating (40° C., 60′C.), and high humidity (RH 75%, RH 90%).

[2] = Special stability study: grinding, heating and pressing of the crystal form; assay type: physicochemical
Description: Crystal form II of the compound of formula (I) prepared according to the method of Example 1 was ground, heated and pressed.

| SMILES | purity as detected by HPLC ([1]; 40° C., Day 0) [%] | purity as detected by HPLC ([1]; 40° C., Day 5) [%] | purity as detected by HPLC ([1]; 40° C., Day 10) [%] | purity as detected by HPLC ([1]; 60° C., Day 0) [%] | purity as detected by HPLC ([1]; 60° C., Day 5) [%] | purity as detected by HPLC ([1]; 60° C., Day 10) [%] | purity as detected by HPLC ([1]; Lighting (4500 Lux), Day 0) [%] | purity as detected by HPLC ([1]; Lighting (4500 Lux), Day 5) [%] | purity as detected by HPLC ([1]; Lighting (4500 Lux), Day 10) [%] | purity as detected by HPLC ([1]; RH 75%, Day 0) [%] | purity as detected by HPLC ([1]; RH 75%, Day 5) [%] | purity as detected by HPLC ([1]; RH 75%, Day 10) [%] | purity as detected by HPLC ([1]; RH 90%, Day 0) [%] | purity as detected by HPLC ([1]; RH 90%, Day 5) [%] | purity as detected by HPLC ([1]; RH 90%, Day 10) [%] | effect of high humidity on stability [1] | other results |
| --- | --- | --- | --- | --- | --- | --- | --- | --- | --- | --- | --- | --- | --- | --- | --- | --- | --- |
| COc1nsc(NC(=O)N2C[C@H]3C[C@H](N(C)c4ncnc5[nH]ccc45)C[C@H]3C2)n1 [Amorphous Form, (3aR,5s,6aS)—N-(3-methoxyl-1,2,4-thiadiazole-5-yl)-5-(methyl(7H-pyrrolo[2,3-d]pyrimidine-4-yl)amino)hexahydrocyclopenta[c]pyrrole-2(1H)-formamide bisulfate] | 98.33 | 97.65 | 96.61 | 98.33 | 94.53 | 92.12 | 98.33 | 98.04 | 97.51 | 98.33 | 98.32 | 98.16 | 98.33 | 99.14 | 99.12 | does not have much effect |  |
| COc1nsc(NC(=O)N2C[C@H]3C[C@H](N(C)c4ncnc5[nH]ccc45)C[C@H]3C2)n1 [Crystal form II, (3aR,5s,6aS)—N-(3-methoxyl-1,2,4-thiadiazole-5-yl)-5-(methyl(7H-pyrrolo[2,3-d]pyrimidine-4-yl)amino)hexahydrocyclopenta[c]pyrrole-2(1H)-formamide bisulfate] | 99.30 | 99.30 | 99.28 | 99.30 | 99.20 | 99.15 | 99.30 | 99.29 | 99.30 | 99.30 | 99.31 | 99.28 | 99.30 | 99.31 | 99.31 | does not have much effect | Crystal form after treatment ([2]; Grinding treatment for 10 minutes in a mortar under nitrogen atmosphere): form II; Crystal form after treatment ([2]; Heating treatment at 80° C. for 3 hours): form II; Crystal form after treatment ([2]; Pressing treatment, pressed to a slice): form II; stability of the crystal form ([2]; ground, heated and pressed): good stability; also recorded: stable; stability compared with the amorphous sample ([1]; conditions of high temperature and high humidity): significantly better than that of the amorphous sample; stability compared with the amorphous sample ([1]; conditions of lighting and high temperature): significantly better than that of the amorphous sample |
